Results: US20220330549A1, “USE OF N-BENZYLBENZAMIDE-BASED COMPOUND AS HERBICIDE” (Northwest A&F University, priority 2020, published 2022)

How the values were obtained:
Assay type in all cases: in vivo
[1] = system: Barnyard grass; experiment: Herbicidal activity test for indoor pre-emergence soil treatment; design: key: level 1-9; higher = more weed remaining vs blank control; conditions: 150 g a.i./ha, visual inspection 21 days after treatment
How it was run: (§1)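 Compounds were formulated as 10% emulsifiable concentrates and sprayed onto the soil 24 h after sowing, at 150 g(a.i.)/ha. Soil was sandy loam (≤2% organic matter), with seeds under 0.5–2.0 cm cover, per NY/T 1155.3-2006. Visual 1–9 ratings relative to blank control were made after 21 days.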

[2] = system: Piemarker; experiment: as above; design: key: level 1-9; higher = more weed remaining vs blank control; conditions: 150 g a.i./ha, visual inspection 21 days after treatment
How it was run: as §1

[3] = system: green bristlegrass; experiment: as above; design: key: level 1-9; higher = more weed remaining vs blank control; conditions: 150 g a.i./ha, visual inspection 21 days after treatment
How it was run: as §1

[4] = system: Amaranthus retroflexus; experiment: as above; design: key: 1-9 levels; higher = more weed remaining vs blank control; conditions: 150 g a.i./ha, visual inspection 21 days after treatment
How it was run: as §1

[5] = system: Digitaria sanguinalis; experiment: as above; design: key: 1-9 levels; higher = more weed remaining vs blank control; conditions: 150 g a.i./ha, visual inspection 21 days after treatment
How it was run: as §1

[6] = system: Humulus scandens; experiment: as above; conditions: 150 g a.i./ha, visual inspection 21 days after treatment
How it was run: as §1

[7] = system: Amaranthus retroflexus; experiment: Herbicidal activity test for indoor post-emergence spraying on stems and leaves; design: key: grade level by weed remaining vs blank control, e.g. 5 = 10.1-15%; conditions: 150 g a.i./ha, visual inspection 21 days after treatment
How it was run: (§2)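 Visual inspection at 21 days after treatment gave a level rating, each level defined as a percentage band of the weed remaining in the blank control area. Plants were sprayed on stems and leaves after emergence, following NY/T 1155.4-2006.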

[8] = system: Barnyard grass; experiment: as above; design: key: grade level by weed remaining vs blank control, e.g. 5 = 10.1-15%; conditions: 150 g a.i./ha, visual inspection 21 days after treatment
How it was run: as §2

[9] = system: Digitaria sanguinalis; experiment: as above; design: key: grade level by weed remaining vs blank control, e.g. 5 = 10.1-15%; conditions: 150 g a.i./ha, visual inspection 21 days after treatment
How it was run: as §2

[10] = system: Humulus scandens; experiment: as above; design: key: grade level by weed remaining vs blank control, e.g. 5 = 10.1-15%; conditions: 150 g a.i./ha, visual inspection 21 days after treatment
How it was run: as §2

[11] = system: Piemarker; experiment: as above; design: key: grade level by weed remaining vs blank control, e.g. 5 = 10.1-15%; conditions: 150 g a.i./ha, visual inspection 21 days after treatment
How it was run: as §2

[12] = system: green bristlegrass; experiment: as above; design: key: grade level by weed remaining vs blank control, e.g. 5 = 10.1-15%; conditions: 150 g a.i./ha, visual inspection 21 days after treatment
How it was run: as §2

[13] = system: Broadleaf weed; experiment: Post-emergence herbicidal activity test in a paddy field; design: key: level scale; higher level = more weed left vs blank control; conditions: 150 g a.i./ha (penoxsulam control 250 g(a.i.)/h)
How it was run: (§3)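 Efficacy was visually estimated 15 and 30 days after spraying, grading weed coverage relative to an untreated neighbouring plot (level 2 = 0 to 2.5%, level 9 = 67.6 to 100%). Treatments were 150 g(a.i.)/ha from 10% emulsifiable concentrates applied at the 4-5 leaf rice stage, four repeats of 50 m^2 each.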

[14] = system: Cyperaceae; experiment: as above; design: key: level scale; higher level = more weed left vs blank control; conditions: 150 g a.i./ha (penoxsulam control 250 g(a.i.)/h)
How it was run: as §3

[15] = system: Gramineae; experiment: as above; design: key: level scale; higher level = more weed left vs blank control; conditions: 150 g a.i./ha (penoxsulam control 250 g(a.i.)/h)
How it was run: as §3

[16] = system: Acalypha australis; experiment: Field test for weed control in a corn field
How it was run: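 Post-emergence field trial in a corn field following GB/T 17980.42-2000. Test compounds were formulated as 10% emulsifiable concentrates, diluted in water, and sprayed at 150 g(a.i.)/ha when corn had 2 to 5 leaves, with 4 replicates on 20 m^2 plots. Mesotrione 25% oil dispersion served as the control agent. Weed control was scored on a 1-9 scale.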

[17] = system: Amaranthus retroflexus; experiment: Field test for weed control in a corn field
How it was run: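 Field efficacy trial in a corn field following GB/T 17980.42-2000. Test compounds were formulated as 10% emulsifiable concentrates, diluted in water and sprayed post-emergence when corn had 2 to 5 leaves. Each treatment covered 20 m^2 with 4 replicates. A 25% mesotrione oil dispersion served as control. Damage to Amaranthus retroflexus was rated on a 1-9 scale against untreated blank plots.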

[18] = system: Barnyard grass; experiment: Field test for weed control in a corn field
How it was run: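 Corn-field efficacy trial following GB/T 17980.42-2000. Test compounds were formulated as 10% emulsifiable concentrates, diluted in water and sprayed post-emergence at 150 g(a.i.)/ha when corn had 2 to 5 leaves. Each treatment was replicated 4 times on 20 m^2 plots. Barnyard grass control was rated on a 1-9 damage scale.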

[19] = system: Chenopodium album; experiment: Field test for weed control in a corn field
How it was run: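 A corn-field efficacy trial following GB/T 17980.42-2000 tested post-emergence control of Chenopodium album. Test compounds formulated as 10% emulsifiable concentrates were diluted in water and sprayed at 150 g(a.i.)/ha when the corn had 2 leaves to 5 leaves, on 20 m^2 plots with 4 replicates. Herbicidal activity was rated on a 1-9 scale by damage symptoms and severity.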

[20] = system: Convolvulus arvensis; experiment: Field test for weed control in a corn field
How it was run: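 Field trial of weed control against Convolvulus arvensis in corn, run following GB/T 17980.42-2000. Test agents were formulated as 10% emulsifiable concentrates and sprayed in water at 150 g(a.i.)/ha when corn plants had 2 to 5 leaves. Each treatment was replicated 4 times on 20 m^2 plots, and 25% mesotrione oil dispersion served as the control agent.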

[21] = system: Digitaria sanguinalis; experiment: Field test for weed control in a corn field
How it was run: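 Field trial in a corn field following GB/T 17980.42-2000. Test compounds were formulated as 10% emulsifiable concentrates, diluted in water and sprayed post-emergence at 150 g(a.i.)/ha when corn had 2 to 5 leaves, with 4 replicates on 20 m^2 plots. Control of Digitaria sanguinalis was scored on a 1-9 scale based on weed damage relative to the untreated blank area.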

[22] = system: Portulaca oleracea; experiment: Field test for weed control in a corn field
How it was run: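 Field efficacy trial in corn following GB/T 17980.42-2000. Test compounds were prepared as 10% emulsifiable concentrates, diluted in water, and sprayed at 150 g(a.i.)/ha when corn had 2 to 5 leaves after sowing. Plots were 20 m^2 with 4 replicates per treatment. Herbicidal activity was scored on a 1-9 scale from weed damage symptoms and severity.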

[23] = system: Solanum nigrum; experiment: Field test for weed control in a corn field
How it was run: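 Post-emergence weed control was tested in a corn field following GB/T 17980.42-2000. Compounds were made into 10% emulsifiable concentrates, diluted in water and sprayed at 150 g(a.i.)/ha when corn had 2 to 5 leaves after sowing, in 20 m^2 plots with 4 replicates. Effects on Solanum nigrum were graded on a 1-9 scale relative to the blank control area.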

[24] = system: goosegrass; experiment: Field test for weed control in a corn field
How it was run: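 Weed control efficacy against goosegrass was tested in a corn field following GB/T 17980.42-2000. Compounds formulated as 10% emulsifiable concentrates were diluted in water and sprayed post-emergence at 150 g(a.i.)/ha when corn had 2 to 5 leaves, with 4 replicates of 20 m^2 plots. Herbicidal activity was rated on a 1-9 scale by damage symptoms and severity.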

[25] = system: green bristlegrass; experiment: Field test for weed control in a corn field
How it was run: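 Post-emergence weed control was tested in a corn field following GB/T 17980.42-2000. When the corn had 2 leaves to 5 leaves after sowing, 10% emulsifiable concentrates diluted in water were sprayed at 150 g(a.i.)/ha on 20 m^2 plots, four replicates per treatment. Effects on green bristlegrass were scored on a 1-9 damage scale relative to the blank control area.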

[26] = system: nutgrass flatsedge; experiment: Field test for weed control in a corn field
How it was run: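 A corn field efficacy trial following GB/T 17980.42-2000 assessed post-emergence control of nutgrass flatsedge. Test compounds were formulated as 10% emulsifiable concentrates, diluted in water, and sprayed at 150 g(a.i.)/ha when the corn had 2 to 5 leaves. Each treatment had 4 replicates on 20 m^2 plots. Herbicidal activity was graded on a 1-9 scale by damage symptoms and severity.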

[27] = 150 g(a.i.)/ha, 21 days after treatments
[28] = 150 g a.i./ha, 30 days after treatment

Cc1cccc(C(=O)NCc2ccc(F)c(Cl)c2)n1 [Compound B30]
Herbicidal Activity Barnyard grass [1]: 1
Herbicidal Activity Piemarker [2]: 1
Herbicidal Activity Green bristlegrass [3]: 1
Herbicidal Activity Amaranthus retroflexus [4]: 1
Herbicidal Activity Digitaria sanguinalis [5]: 1
Herbicidal Activity Humulus scandens [6]: 2 (equivalent to 0 to 2.5% of the weed in the blank control area)
Herbicidal Activity Amaranthus retroflexus [7]: 1
Herbicidal Activity Barnyard grass [8]: 1
Herbicidal Activity Digitaria sanguinalis [9]: 1
Herbicidal Activity Humulus scandens [10]: 1
Herbicidal Activity Piemarker [11]: 1
Herbicidal Activity Green bristlegrass [12]: 1
Herbicidal activity 15 days after treatment Broadleaf weed ([13]; 15 days after treatment): 1
Herbicidal activity 30 days after treatment Broadleaf weed ([13]; 30 days after treatment): 1
Herbicidal activity 15 days after treatment Cyperaceae ([14]; 15 days after treatment): 1
Herbicidal activity 30 days after treatment Cyperaceae ([14]; 30 days after treatment): 2 (equivalent to 0 to 2.5% of the weed in the blank control area)
Herbicidal activity 15 days after treatment Gramineae ([15]; 15 days after treatment): 1
Herbicidal activity 30 days after treatment Gramineae ([15]; 30 days after treatment): 1
Post-emergence weed control effect, Acalypha australis ([16]; 150 g a.i./ha, after treatment): 1
controlling effect on Acalypha australis [16, 27]: 1
Post-emergence weed control effect, Amaranthus retroflexus [17, 28]: 1
controlling effect on Amaranthus retroflexus [17, 27]: 1
Post-emergence weed control effect, Barnyard grass [18, 28]: 1
controlling effect on barnyard grass [18, 27]: 1
Post-emergence weed control effect, Chenopodium album ([19]; 150 g a.i./ha, after treatment): 1
controlling effect on Chenopodium album [19, 27]: 1
Post-emergence weed control effect, Convolvulus arvensis ([20]; 150 g a.i./ha, after treatment): 1
controlling effect on Convolvulus arvensis [20, 27]: 1
Post-emergence weed control effect, Digitaria sanguinalis ([21]; 150 g a.i./ha, after treatment): 1
controlling effect on Digitaria sanguinalis [21, 27]: 1
Post-emergence weed control effect, Portulaca oleracea ([22]; 150 g a.i./ha, after treatment): 1
controlling effect on Portulaca oleracea [22, 27]: 1
Post-emergence weed control effect, Solanum nigrum [23, 28]: 1
controlling effect on Solanum nigrum [23, 27]: 1
Post-emergence weed control effect, Goose grass ([24]; 150 g a.i./ha, after treatment): 1
controlling effect on goosegrass [24, 27]: 1
Post-emergence weed control effect, Green bristlegrass ([25]; 150 g a.i./ha, after treatment): 1
controlling effect on green bristlegrass [25, 27]: 1
Post-emergence weed control effect, Nutgrass flatsedge ([26]; 150 g a.i./ha, after treatment): 1
controlling effect on nutgrass flatsedge [26, 27]: 1
